According to patent US7897781B2, “Cold menthol receptor-1 antagonists” (Janssen Pharmaceutica NV, priority 2006, dated 2011):
Where “and” joins values, the source holds several entries; their conditions need not be identical. Identical values can stand only once.

Biological target: T1, canine TRPM8 (Canis lupus familiaris, UniProt Q1A7N1)
T1 construct: expressed in transfected cells
Assay: In vitro canine TRPM8 functional assay (Ca2+-sensitive dye, icilin activation; Table 4 TRPM8 Screening)
Format: cell-based
Details: HEK293 cells expressing canine TRPM8, icilin activation; for % I (1 μM): compound at 1 μM; for % I (5 μM): compound at 5 μM
Protocol: The functional activity of compounds of Formula (I) was determined by measuring changes in intracellular calcium concentration using a Ca^2+-sensitive fluorescent dye. The changes in fluorescent signal were monitored by a fluorescence plate reader, either a FLIPR™ (Molecular Devices) or FDSS (Hamamatsu).
HEK293 cells stably expressing canine TRPM8 were routinely grown as monolayers in Dulbecco's minimum essential medium supplemented with 10% FBS, 1 mM L-glutamine, 100 units/mL penicillin, 100 ug/mL streptomycin and 400 μg/mL G418. Cells were maintained in 5% CO2 at 37° C. At 24 hrs prior to assay, cells were seeded in clear-base poly-D-lysine coated 384-well plates (BD Biosciences, NJ, USA) at a density of 5,000 cells per well in culture medium and grown overnight in 5% CO2 at 37° C. On assay day, growth media was removed and cells were loaded with Calcium 3 Dye (Molecular Devices) for 35 min at 37° C., under 5% CO2 and then for 25 min at room temperature and atmosphere. Subsequently, cells were tested for agonist-induced increases in intracellular Ca^2+ levels using FLIPR™ or FDSS. Cells were challenged with a compound of Formula (I) (at varying concentrations) and intracellular Ca^2+ was measured for 5 min prior to the addition of icilin to all wells to achieve a final concentration which produces approximately an 80% maximal response.
Basal FI was subtracted prior to normalizing data to percent of maximal response. Curves were generated using the average of quadruplicate wells for each data point, were analyzed using nonlinear regression of either sigmoidal dose response or sigmoidal dose response (variable slope). Finally, the EC50 and IC50 values were calculated with the best-fit dose curve determined by GraphPad Prism.

T1 sequence (Q1A7N1 1-1104): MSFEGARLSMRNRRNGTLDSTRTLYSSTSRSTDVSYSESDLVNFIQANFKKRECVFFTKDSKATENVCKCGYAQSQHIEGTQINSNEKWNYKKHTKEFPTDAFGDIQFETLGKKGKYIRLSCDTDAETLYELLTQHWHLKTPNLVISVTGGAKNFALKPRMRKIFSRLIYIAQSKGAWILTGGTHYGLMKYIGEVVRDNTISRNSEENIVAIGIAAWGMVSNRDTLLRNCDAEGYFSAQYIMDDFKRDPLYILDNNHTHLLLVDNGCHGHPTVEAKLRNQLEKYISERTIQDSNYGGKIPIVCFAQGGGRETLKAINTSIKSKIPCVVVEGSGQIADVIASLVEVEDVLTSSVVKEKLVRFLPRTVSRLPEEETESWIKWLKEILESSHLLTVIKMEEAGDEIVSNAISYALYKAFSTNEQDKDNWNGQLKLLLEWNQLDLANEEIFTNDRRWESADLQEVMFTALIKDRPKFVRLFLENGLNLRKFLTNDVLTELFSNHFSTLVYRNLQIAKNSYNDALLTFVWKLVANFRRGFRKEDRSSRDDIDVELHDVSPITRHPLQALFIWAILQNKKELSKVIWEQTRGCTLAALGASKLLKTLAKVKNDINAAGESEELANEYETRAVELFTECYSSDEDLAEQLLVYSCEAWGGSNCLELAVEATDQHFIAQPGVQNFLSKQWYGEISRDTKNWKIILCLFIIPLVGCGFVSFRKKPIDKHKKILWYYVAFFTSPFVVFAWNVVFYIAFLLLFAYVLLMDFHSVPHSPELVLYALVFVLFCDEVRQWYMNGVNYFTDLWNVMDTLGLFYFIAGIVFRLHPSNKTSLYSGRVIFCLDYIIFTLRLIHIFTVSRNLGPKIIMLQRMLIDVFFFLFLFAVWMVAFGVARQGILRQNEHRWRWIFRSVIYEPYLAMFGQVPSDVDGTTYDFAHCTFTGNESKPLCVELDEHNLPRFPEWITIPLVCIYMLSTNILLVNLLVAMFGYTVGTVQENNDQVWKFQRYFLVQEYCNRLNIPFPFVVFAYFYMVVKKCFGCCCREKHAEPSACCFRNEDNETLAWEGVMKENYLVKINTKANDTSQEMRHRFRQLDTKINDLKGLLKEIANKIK

Molecule	% I (0.5 μM) (compound at 0.5 μM)	% I (1 μM)	other results
CCOP(=O)(OCC)C(Cc1ccc(F)c(F)c1)c1sc2ccccc2c1-c1ccccc1F (racemic) [Cpd 216]	100%		
CCOP(=O)(OCC)C(Cc1c(Cl)cccc1Cl)c1cc2ccccc2s1 (centres unmarked) [Cpd 95]		89%	% I (5 μM): 100%
CC(C)OP(=O)(OC(C)C)C(Cc1ccc(F)c(C(F)(F)F)c1)c1c(Br)c2ccccc2n1S(C)(=O)=O (centres unmarked) [Cpd 330, [1-(3-Bromo-1-methanesulfonyl-1H-indol-2-yl)-2-(4-fluoro-3-trifluoromethyl-phenyl)-ethyl]-phosphonic acid diisopropyl ester]			inhibition at 0.5 µM (compound at 0.5 μM, read-out: % I (0.5 μM)): 103%
CC(C)OP(=O)(OC(C)C)C(Cc1ccc(F)c(F)c1)c1sc2ccccc2c1C(C)C (centres unmarked) [Cpd 19]		100%	
CCOP(=O)(OCC)C(Cc1cccc(C(F)(F)F)c1)c1sc2ccccc2c1Br (centres unmarked) [Cpd 141]	100%		
CCOP(=O)(OCC)C(Cc1cc2ccccc2s1)c1cc2ccccc2s1 (centres unmarked) [Cpd 90]		89%	
CCCS(=O)(=O)n1c(C(Cc2ccc(F)c(C(F)(F)F)c2)P(=O)(OC(C)C)OC(C)C)c(Br)c2ccccc21 (centres unmarked) [Cpd 332]	72%		
CCOP(=O)(OCC)C(Cc1c(Cl)ccc(C)c1F)c1sc2ccccc2c1C (centres unmarked) [Cpd 60]		100%	
CC(=O)OCCOP(=O)(OCCOC(C)=O)C(Cc1ccc(F)c(F)c1)c1sc2ccccc2c1Br (racemic) [Cpd 213]	100%		
CCOP(=O)(OCC)C(Cc1ccc(F)c(F)c1)c1cc2cccnc2s1 (centres unmarked) [Cpd 131]		28%	
CC(C)OP(=O)(OC(C)C)C(Cc1cc(C(F)(F)F)cc(C(F)(F)F)c1)c1sc2ccccc2c1Cl (racemic) [Cpd 171]	95%		
CCOP(=O)(OCC)C(Cc1ccccc1Br)c1sc2ccccc2c1C (centres unmarked) [Cpd 66]		100%	
CCOP(=O)(OCC)C(Cc1ccccc1OC(F)(F)F)c1sc2ccccc2c1C (centres unmarked) [Cpd 61]		100%	
CCOP(=O)(OCC)C(Cc1cccc(C(F)(F)F)c1F)c1sc2ccccc2c1C (centres unmarked) [Cpd 37]		100%	
CCOP(=O)(OCC)C(Cc1ccccc1F)c1cc2ccccc2s1 (centres unmarked) [Cpd 80]		93%	% I (5 μM): 100%
CCOP(=O)(OCC)C(Cc1cc(C(F)(F)F)cc(C(F)(F)F)c1)c1sc2ccccc2c1Cl (racemic) [Cpd 282]	100%		
CC(C)OP(=O)(OC(C)C)C(Cc1cccc(C(F)(F)F)c1Cl)c1sc2ccccc2c1Cl (centres unmarked) [Cpd 177]	96%		
CC(C)OP(=O)(OC(C)C)C(Cc1ccc(F)c(F)c1)c1sc2ccccc2c1C1CCCC1 (centres unmarked) [Cpd 38]		99%	
CCOP(=O)(OCC)C(Cc1cc(O)cc(O)c1)c1sc2ccccc2c1Br (centres unmarked) [Cpd 322]	45%		
CCOP(=O)(OCC)C(Cc1ccc(F)cc1Cl)c1cc2ccccc2s1 (centres unmarked) [Cpd 98]		79%	
CCOP(=O)(OCC)C(Cc1ccccc1C(F)(F)F)c1sc2ccccc2c1C (centres unmarked) [Cpd 59]		99%	

Molecule	% I (0.5 μM) (compound at 0.5 μM)	% I (1 μM)	other results
CCOP(=O)(OCC)C(Cc1ccccc1Cl)c1sc2ccccc2c1C (centres unmarked) [Cpd 48]		100%	
CCOP(=O)(OCC)C(Cc1ccccc1C(F)(F)F)c1sc2ccccc2c1Cl (racemic) [Cpd 279]	97%		
CCOP(=O)(OCC)C(Cc1cccc(F)c1F)c1sc2ccccc2c1C (centres unmarked) [Cpd 10]		100%	
CCOP(=O)(OCC)C(Cc1ccc(OC)c(C(F)(F)F)c1)c1sc2ccccc2c1Br (racemic) [Cpd 152]	92%		
[2-(3,4-Difluoro-phenyl)-1-(3-methyl-benzo[b]thiophene-2-yl)-ethyl]-methyl-phosphonic acid ethyl ester [Cpd 106]		32%	
CCOP(=O)(OCC)C(Cc1ccc(O)c(C(F)(F)F)c1)c1sc2ccccc2c1Br (centres unmarked) [Cpd 233]	70%		
CCOP(=O)(OCC)C(Cc1ccc(Br)cc1)c1cc2ccccc2s1 (centres unmarked) [Cpd 70]		82%	% I (5 μM): 99%
CCOP(=O)(CC(C)C)C(Cc1ccc(F)c(F)c1)c1sc2ccccc2c1C (centres unmarked) [Cpd 6, [2-(3,4-Difluoro-phenyl)-1-(3-methyl-benzo[b]thiophene-2-yl)-ethyl]-isobutyl-phosphonic acid ethyl ester]		100%	
CCOP(=O)(OCC)C(Cc1cccc(OC(F)(F)F)c1)c1sc2ccccc2c1C (centres unmarked) [Cpd 57]		100%	
COP(=O)(OC)C(Cc1ccc(F)c(F)c1)c1sc2ccccc2c1Br (centres unmarked) [Cpd 201]		100%	
CCOP(=O)(Cc1cc2ccccc2s1)OCc1ccc(F)cc1 (centres unmarked) [Cpd 107]			% I (5 μM): 99%
CCOP(=O)(OCC)C(Cc1cc(C(F)(F)F)ccc1F)c1sc2ccccc2c1C (centres unmarked) [Cpd 67]		100%	
CCOP(=O)(OCC)C(Cc1cc(C(F)(F)F)cc(Cl)c1F)c1sc2ccccc2c1C (centres unmarked) [Cpd 73]		100%	
CC(C)OP(=O)(OC(C)C)C(Cc1c(F)c(F)c(O)c(F)c1F)c1sc2ccccc2c1Br (racemic) [Cpd 229]	95%		
CCOP(=O)(OCC)C(Cc1c(F)c(F)c(O)c(F)c1F)c1sc2ccccc2c1Br (racemic) [Cpd 228]	94%		
CC(C)OP(=O)(OC(C)C)C(Cc1ccc(F)c(F)c1)c1sc2ccccc2c1Br (centres unmarked) [Cpd 15, [1-(3-Bromo-benzo[b]thiophen-2-yl)-2-(3,4-difluoro-phenyl)ethyl]-phosphonic acid diisopropyl ester]		100% and 103%	
CCOP(=O)(OCC)C(Cc1cc(C(F)(F)F)ccc1Cl)c1sc2ccccc2c1C (centres unmarked) [Cpd 99]		100%	
CCOP(=O)(OCC)C(Cc1c(F)c(F)c(OC)c(F)c1F)c1sc2ccccc2c1Br (racemic) [Cpd 160]	87%		
CC(C)OP(=O)(OC(C)C)C(Cc1ccc(S(C)(=O)=O)cc1)c1sc2ccccc2c1Br (centres unmarked) [Cpd 252]	44%		
CCOP(=O)(Cc1cc2ccccc2s1)OCc1ccccc1 (centres unmarked) [Cpd 111]		14%	
CCOP(=O)(OCC)C(Cc1cc(F)cc(F)c1Cl)c1sc2ccccc2c1C (centres unmarked) [Cpd 28]		100%	

Molecule	% I (0.5 μM) (compound at 0.5 μM)	% I (1 μM)	other results
[2-(3,4-Difluoro-phenyl)-1-(3-methyl-benzo[b]thiophene-2-yl)-ethyl]-[3-(4-methoxy-phenyl)-propyl]-phosphonic acid ethyl ester [Cpd 136]		91%	
CCOP(=O)(OCC)C(Cc1ccc2ccccc2c1)c1cc2ccccc2s1 (centres unmarked) [Cpd 83]		84%	
(R)-[1-(3-Bromo-benzo[b]thiophen-2-yl)-2-(4-trifluoromethoxy-phenyl)ethyl]-phosphonic acid diisopropyl ester [Cpd 237]	96% and 70%		
CC(C)OP(=O)(OC(C)C)C(Cc1ccccc1F)c1sc2cccc(Br)c2c1Br (centres unmarked) [Cpd 198]		98%	
CCOP(=O)(OCC)C(Cc1ccc(F)c(F)c1)c1oc2cccc(F)c2c1Br (racemic) [Cpd 206]		100%	
CC(C)OP(=O)(OC(C)C)C(Cc1cc(O)c(Cl)cc1F)c1sc2ccccc2c1Br (racemic) [Cpd 232]	99%		
CCOP(=O)(OCC)C(Cc1ccc(O)c(F)c1)c1sc2ccccc2c1Br (centres unmarked) [Cpd 226]	34%		
CCOP(=O)(OCC)C(Cc1ccccc1-c1ccccc1)c1sc2ccccc2c1C (centres unmarked) [Cpd 115]		69%	
CC(C)OP(=O)(OC(C)C)C(Cc1cccc(O)c1)c1sc2ccccc2c1Br (centres unmarked) [Cpd 325]	97%		
CCOP(=O)(OCC)C(Cc1ccccc1C)c1sc2ccccc2c1C (centres unmarked) [Cpd 26]		100%	
CCOP(=O)(OCC)C(Cc1ccc(OC(F)(F)F)cc1)c1sc2ccccc2c1Br (centres unmarked) [Cpd 155, [1-(3-Bromo-benzo[b]thiophen-2-yl)-2-(4-trifluoromethoxyphenyl)-ethyl]-phosphonic acid diethyl ester]	101% and 102%		
CCOP(=O)(OCC)C(Cc1ccc(F)c(F)c1)c1sc2ccccc2c1-c1cccc(C(N)=O)c1 (racemic) [Cpd 218]	79%		
CC(C)OP(=O)(OC(C)C)C(Cc1cccc(C(F)(F)F)c1)c1cc2ccccc2s1 (centres unmarked) [Cpd 69]		99%	
CC(C)OP(=O)(OC(C)C)C(Cc1cc(C(F)(F)F)cc(Cl)c1F)c1cc2ccccc2s1 (centres unmarked) [Cpd 126]		100%	
CCOP(=O)(OCC)C(Cc1cc(C(F)(F)F)cc(C(F)(F)F)c1)c1cc2ccccc2s1 (centres unmarked) [Cpd 96]		92%	
CC(C)OP(=O)(OC(C)C)C(Cc1ccccc1F)c1sc2cc(Br)ccc2c1Br (centres unmarked) [Cpd 199]		81%	
CCOP(=O)(CC(C)C)C(Cc1ccc(F)c(F)c1)c1sc2ccccc2c1C (centres unmarked) [Cpd 36, [2-(3,4-Difluoro-phenyl)-1-(3-methyl-benzo[b]thiophene-2-yl)-ethyl]-isobutyl-phosphonic acid ethyl ester]		100%	
CCOP(=O)(OCC)C(Cc1cc2c(cc1Cl)OCO2)c1cc2ccccc2s1 (centres unmarked) [Cpd 112]		42%	
CCOP(=O)(OCC)C(Cc1ccc(F)c(F)c1)c1cc2ccccc2o1 (centres unmarked) [Cpd 265]		95%	
CCOP(=O)(OCC)C(Cc1ccc(F)cc1Cl)c1sc2ccccc2c1C (centres unmarked) [Cpd 27]		99%	
